Results from patent publication US20160257697A1, “THIOPHENE-SUBSTITUTED TETRACYCLIC COMPOUNDS AND METHODS OFUSE THEREOF FOR THE TREATMENT OF VIRAL DISEASES” (priority 2013, published 2016).
Like-named read-outs stand apart in the source and are kept apart here.

Tests used:
Assay in all cases: microbe, parasite or virus in culture
Assay type in all cases: cell-based, Hepatitis C virus (HCV)
[1] = test system: HCV replicon 1AY93H; conditions: Replicon Assay A
Procedure, shortened: (§1)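 Replicon cells incubated with compound for 3 days in medium with 5% FBS and 0.5% DMSO final. Replicon RNA measured in lysates by multiplex real-time RT-PCR (Neo set) against cyclophilin control, quantified from standard curves of Ct versus log ng replicon total RNA.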

[2] = test system: HCV replicon 2B; conditions: Replicon Assay A
Procedure, shortened: as §1

[3] = test system: HCV replicon 1B; conditions: Replicon Assay B
Procedure: In an alternate assay (“Replicon Assay B”), 1000 cells were seeded per well in a 384-well collagen coated black plate from Greiner bio-one (Cat #781946) in 5% FBS. Inhibitors of this invention were added at 24 h post-seeding, and the plates were incubated for 3 days. Cells were subsequently lysed with Qiagen lysis buffer (Cat #1062731) to extract the RNA. HCV replicon RNA level was measured by real-time PCR using the RNA-to-CT kit from Applied Biosystem (Cat #4392656) and genotype-specific primers and probes. The amplicon was located within NS5B. […] (SEQ. ID NO. 2); the probe sequence was FAM-labeled […] (SEQ. ID NO. 3).
The real-time RT-PCR reactions were run on ABI PRISM 7900HT or Viia7 Sequence Detection System using the following program: 48° C. for 30 minutes, 95° C. for 10 minutes, 40 cycles of 95° C. for 15 sec, 60° C. for 1 minutes.
Data for replicons 1A, 1AY93H and 2B were obtained using Replicon Assay A and data for replicons 1AQ30D and 1B were obtained using Replicon Assay B.

[4] = test system: HCV replicon 1A; conditions: Replicon Assay A
Procedure, shortened: as §1

[5] = Hepatitis C virus, read-out: 2B IC50, HCV replicon 2B
[6] = Hepatitis C virus, HCV replicon 1A
[7] = read-out: 1A Y93H IC50, replicon 1AY93H
[8] = read-out: 1A Y93H IC50, HCV replicon 1A Y93H
[9] = read-out: 2B IC50, HCV replicon 2B
[10] = Hepatitis C virus, read-out: 1A Y93H IC50, HCV replicon 1A Y93H

CCc1c2n(c3ccc(-c4cnc(C5CCCN5C(=O)C(NC(=O)OC)C(C)C)[nH]4)cc13)C(c1ccc(C3CC3)s1)Oc1cc(-c3cnc(C4CCCN4C(=O)C(NC(=O)OC)C(C)C)[nH]3)cc(F)c1-2 (single isomer, unassigned) [Compound 839]
IC50 ([1]; HCV replicon 1A Y93H, read-out: 1A Y93H IC50): 0.865 nM | IC50 ([2]; HCV replicon 2B, read-out: 2B IC50): 0.971 nM | IC50 ([3]; HCV replicon 1B): 0.0023 nM

CCc1c2n(c3ccc(-c4cnc(C5CCCN5C(=O)C(NC(=O)OC)C(C)C)[nH]4)cc13)C(c1ccc(C3CC3)s1)Oc1cc(-c3cnc(C4CCCN4C(=O)C(NC(=O)OC)C(C)C)[nH]3)cc(F)c1-2 (single isomer, unassigned) [Compound 838]
IC50 ([4]; HCV replicon 1A): 0.0055 nM | IC50 ([3]; HCV replicon 1B): 0.0013 nM

COC(=O)NC(C(=O)N1CCC[C@H]1c1ncc(-c2ccc3c(c2)cc2n3C(c3ccc(C4CC4)s3)Oc3cc(-c4cnc([C@@H]5CCCN5C(=O)[C@@H](NC(=O)OC)C(C)C)[nH]4)cc(F)c3-2)[nH]1)C1CCOC(C)(C)C1 (single isomer, unassigned) [Compound 225]
IC50 ([2]; read-out: 2B IC50, replicon 2B): 13.7 nM | IC50 ([4]; replicon 1A): 0.0477 nM | IC50 ([3]; Hepatitis C virus, replicon 1B): 0.0102 nM

COC(=O)N[C@H](C(=O)N1CCC[C@H]1c1ncc(-c2cc3c4c(c2)OC(c2ccc(Cl)s2)n2c-4c(c4cc(-c5cnc([C@@H]6CCCN6C(=O)[C@@H](NC(=O)OC)C(C)C)[nH]5)ccc42)CC3)[nH]1)C(C)C (stereo partly drawn) [Compound 834]
IC50 [2, 5]: 16.7 nM | IC50 [4, 6]: 0.0842 nM | IC50 ([3]; Hepatitis C virus, HCV replicon 1B): 0.0488 nM

CCc1ccc(C2Oc3cc(-c4cnc([C@@H]5CCCN5C(=O)[C@@H](NC(=O)OC)C(C)C)[nH]4)cc(F)c3-c3cc4cc(-c5cnc([C@@H]6CCCN6C(=O)C(NC(=O)OC)C6C[C@@H](C)O[C@@H](C)C6)[nH]5)ccc4n32)s1 (single isomer, unassigned) [Compound 143]
IC50 ([4]; replicon 1A): 0.111 nM | IC50 ([3]; Hepatitis C virus, replicon 1B): 0.0059 nM

COC(=O)NC(C(=O)N1CCC[C@H]1c1ncc(-c2cc(F)c3c(c2)OC(c2ccc(C4CC4)s2)n2c-3cc3cc(-c4cnc([C@@H]5CCCN5C(=O)C(NC(=O)OC)C(C)(C)F)[nH]4)ccc32)[nH]1)C(C)(C)F (single isomer, unassigned) [Compound 110]
IC50 [1, 7]: 1.97 nM | IC50 ([2]; read-out: 2B IC50, replicon 2B): 2.43 nM | IC50 ([4]; Hepatitis C virus, replicon 1A): 0.002 nM

COC(=O)N[C@H](C(=O)N1CCC[C@H]1c1ncc(-c2cc(F)c3c(c2)OC(c2ccc(CC(C)C)s2)n2c-3cc3cc(-c4cnc([C@@H]5CCCN5C(=O)[C@@H](NC(=O)OC)C(C)C)[nH]4)ccc32)[nH]1)C(C)C (single isomer, unassigned) [Compound 521]
IC50 [1, 8]: 0.695 nM | IC50 [2, 9]: 3.49 nM | IC50 ([4]; HCV replicon 1A): 0.00652 nM

COC(=O)N[C@H](C(=O)N1CCC[C@H]1c1ncc(-c2cc(F)c3c(c2)OC(c2ccc(CC4CC4)s2)n2c-3cc3cc(-c4cnc([C@@H]5C[C@H]6C[C@H]6N5C(=O)[C@@H](NC(=O)OC)C(C)C)[nH]4)ccc32)[nH]1)C(C)C (single isomer, unassigned) [Compound 390]
IC50 [1, 7]: 0.314 nM | IC50 ([2]; read-out: 2B IC50, replicon 2B): 0.754 nM | IC50 ([4]; replicon 1A): 0.003 nM

COC(=O)N[C@H](C(=O)N1CCC[C@H]1c1ncc(-c2cc(F)c3c(c2)OC(c2ccc(CC(C)C)s2)n2c-3cc3cc(-c4cnc([C@@H]5CCCN5C(=O)[C@@H](NC(=O)OC)C(C)C)[nH]4)ccc32)[nH]1)C(C)C (single isomer, unassigned) [Compound 522]
IC50 [1, 8]: 0.0776 nM | IC50 [2, 9]: 0.417 nM | IC50 ([4]; HCV replicon 1A): 0.0239 nM

COC(=O)N[C@H](C(=O)N1CCC[C@H]1c1ncc(-c2cc(F)c3c(c2)OC(c2scc4c2OCCO4)n2c-3cc3cc(-c4cnc([C@@H]5C[C@H](F)CN5C(=O)[C@@H](NC(=O)OC)C(C)C)[nH]4)ccc32)[nH]1)C(C)C (single isomer, unassigned) [Compound 526]
IC50 [1, 10]: 4.79 nM | IC50 [2, 5]: 33.3 nM | IC50 [4, 6]: 0.00776 nM

COC(=O)N[C@H](C(=O)N1CCC[C@H]1c1ncc(-c2cc(F)c3c(c2)OC(c2ccc(C4CC4)s2)n2c-3c(C)c3cc(-c4cnc([C@@H]5CCCN5C(=O)[C@@H](NC(=O)OC)C(C)C)[nH]4)ccc32)[nH]1)C(C)C (single isomer, unassigned) [Compound 842]
IC50 ([4]; HCV replicon 1A): 0.0066 nM | IC50 ([3]; HCV replicon 1B): 0.0014 nM

COC(=O)NC(C(=O)N1CCC[C@H]1c1ncc(-c2ccc3c(c2)cc2n3C(c3ccc(C(C)C)s3)Oc3cc(-c4cnc([C@@H]5CCCN5C(=O)[C@@H](NC(=O)OC)C(C)C)[nH]4)cc(F)c3-2)[nH]1)C1CCOC(C)(C)C1 (single isomer, unassigned) [Compound 237]
IC50 [1, 7]: 0.21 nM | IC50 ([2]; read-out: 2B IC50, replicon 2B): 0.4 nM | IC50 ([4]; replicon 1A): 0.0012 nM

COC(=O)N[C@H](C(=O)N1CCC[C@H]1c1ncc(-c2ccc3c(c2)OC(c2ccc(C4CC4)s2)n2c-3c(C)c3cc(-c4cnc([C@@H]5CCCN5C(=O)[C@@H](NC(=O)OC)C(C)C)[nH]4)ccc32)[nH]1)C(C)C (single isomer, unassigned) [Compound 22]
IC50 [1, 7]: 1.38 nM | IC50 ([2]; read-out: 2B IC50, replicon 2B): 1.84 nM | IC50 ([4]; replicon 1A): 0.002 nM

COC(=O)NC(C(=O)N1CCCC1c1ncc(-c2cc(F)c3c(c2)OC(c2ccc(C4CCC4)s2)n2c-3cc3cc(-c4cnc(C5CCCN5C(=O)C(NC(=O)OC)C5CC(C)OC(C)C5)[nH]4)ccc32)[nH]1)C(C)C (single isomer, unassigned) [Compound 373]
IC50 ([1]; replicon 1AY93H, read-out: 1A Y93H IC50): 0.248 nM | IC50 ([2]; replicon 2B, read-out: 2B IC50): 0.156 nM | IC50 ([4]; replicon 1A): 0.001 nM

COC(=O)N[C@H](C(=O)N1C[C@H](F)C[C@H]1c1nc(-c2ccc3c(c2)cc2n3C(c3cc(C)c(C)s3)Oc3cc(-c4cnc([C@@H]5C[C@@H](F)CN5C(=O)[C@@H](NC(=O)OC)C(C)C)[nH]4)ccc3-2)c[nH]1)C(C)C (mixture of isomers) [Compound 711]
IC50 [1, 10]: 0.12 nM | IC50 [2, 5]: 0.029 nM | IC50 [4, 6]: 0.027 nM

CCc1ccc(C2Oc3cc(-c4cnc([C@@H]5CCCN5C(=O)[C@@H](NC(=O)OC)C(C)C)[nH]4)cc(C)c3-c3cc4cc(-c5cnc([C@@H]6CCCN6C(=O)C(NC(=O)OC)C6C[C@@H](C)O[C@H](C)C6)[nH]5)ccc4n32)s1 (single isomer, unassigned) [Compound 546]
IC50 [1, 8]: 0.268 nM | IC50 [2, 9]: 0.0542 nM | IC50 ([4]; HCV replicon 1A): 0.0138 nM

COC(=O)N[C@H](C(=O)N1CCC[C@H]1c1ncc(-c2cc(C)c3c(c2)OC(c2cc4c(s2)CCC4)n2c-3cc3cc(-c4cnc([C@@H]5CCCN5C(=O)[C@@H](NC(=O)OC)C5C[C@@H](C)O[C@@H](C)C5)[nH]4)ccc32)[nH]1)C(C)C (single isomer, unassigned) [Compound 550]
IC50 [1, 8]: 0.154 nM | IC50 [2, 9]: 0.0435 nM | IC50 ([4]; HCV replicon 1A): 0.03 nM

COC(=O)NC(C(=O)N1CCC[C@H]1c1ncc(-c2ccc3c(c2)cc2n3C(c3ccc(C4CC4)s3)Oc3cc(-c4cnc([C@@H]5CCCN5C(=O)[C@@H](NC(=O)OC)C(C)C)[nH]4)cc(F)c3-2)[nH]1)C1CCO[C@@H](C)C1 (single isomer, unassigned) [Compound 355]
IC50 [1, 7]: 1.75 nM | IC50 ([2]; read-out: 2B IC50, replicon 2B): 2.8 nM | IC50 ([4]; replicon 1A): 0.0019 nM

COC(=O)N[C@H](C(=O)N1CCC[C@H]1c1ncc(-c2ccc3c(c2)OC(c2cc4ccccc4s2)n2c-3cc3cc(-c4cnc([C@@H]5C[C@@H](F)CN5C(=O)[C@@H](NC(=O)OC)C5CCOCC5)[nH]4)ccc32)[nH]1)C1CCOCC1 (single isomer, unassigned) [Compound 812]
IC50 [1, 8]: 0.44 nM | IC50 [2, 9]: 0.15 nM | IC50 [4, 6]: 0.034 nM

COC(=O)N[C@H](C(=O)N1CCC[C@H]1c1ncc(-c2cc(F)c3c(c2)OC(c2cc(C)c(C)s2)n2c-3cc3cc(-c4cnc([C@@H]5C[C@@H](F)CN5C(=O)[C@@H](NC(=O)OC)C(C)C)[nH]4)ccc32)[nH]1)C(C)C (single isomer, unassigned) [Compound 515]
IC50 [1, 8]: 6.54 nM | IC50 [2, 9]: 18.7 nM | IC50 ([4]; HCV replicon 1A): 0.0103 nM

COC(=O)N[C@H](C(=O)N1CCC[C@H]1c1ncc(-c2cc(F)c3c(c2)OC(c2cc(C)c(C)s2)n2c-3cc3cc(-c4cnc([C@@H]5C[C@@H](F)CN5C(=O)[C@@H](NC(=O)OC)C(C)C)[nH]4)ccc32)[nH]1)C(C)C (single isomer, unassigned) [Compound 516]
IC50 [1, 8]: 0.0114 nM | IC50 [2, 9]: 5.2 nM | IC50 ([4]; HCV replicon 1A): 0.00191 nM

CCc1ccc(C2Oc3cc(-c4cnc([C@@H]5CCCN5C(=O)[C@@H](NC(=O)OC)C(C)C)[nH]4)cc(F)c3-c3cc4cc(-c5cnc([C@@H]6C[C@H]7C[C@H]7N6C(=O)C(NC(=O)OC)C6C[C@@H](C)O[C@@H](C)C6)[nH]5)ccc4n32)s1 (single isomer, unassigned) [Compound 194]
IC50 ([1]; Hepatitis C virus, read-out: 1A Y93H IC50 (nM), replicon 1AY93H): 0.095 nM | IC50 ([2]; Hepatitis C virus, read-out: 2B IC50 (nM), replicon 2B): 0.63 nM | IC50 ([4]; Hepatitis C virus, replicon 1A): 0.0019 nM
